{"source": "ChEMBL document CHEMBL5209572", "about": "“Membrane potential based assay for SLC22A4 using HEK-293 SLC22A4 OE cells” (2022)", "molecular_target": "T1, Solute carrier family 22 member 4 (Homo sapiens, UniProt Q9H015)", "T1 sequence (Q9H015 whole entry)": "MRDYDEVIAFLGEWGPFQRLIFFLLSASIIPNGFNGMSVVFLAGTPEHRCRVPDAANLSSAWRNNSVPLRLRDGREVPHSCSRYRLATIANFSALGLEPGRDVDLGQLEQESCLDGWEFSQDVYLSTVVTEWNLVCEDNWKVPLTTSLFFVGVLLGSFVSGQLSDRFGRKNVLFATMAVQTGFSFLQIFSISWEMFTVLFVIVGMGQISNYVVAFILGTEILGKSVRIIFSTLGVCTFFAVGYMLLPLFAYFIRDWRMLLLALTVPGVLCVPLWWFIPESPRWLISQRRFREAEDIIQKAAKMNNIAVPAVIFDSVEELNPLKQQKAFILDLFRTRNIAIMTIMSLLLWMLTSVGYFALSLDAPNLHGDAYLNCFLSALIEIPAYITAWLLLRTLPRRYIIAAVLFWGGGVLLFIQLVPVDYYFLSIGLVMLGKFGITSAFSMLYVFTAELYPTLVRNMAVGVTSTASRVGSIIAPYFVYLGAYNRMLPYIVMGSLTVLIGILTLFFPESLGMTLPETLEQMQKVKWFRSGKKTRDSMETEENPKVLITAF", "assay": "Substrate uptake by the Organic Cation/Carnitine Transporter 1 (OCTN1, SLC22A4) as assessed by the fluorescent FLIPR membrane potential dye in HEK-293 cells stably transfected with SLC22A4 (PubChem AID: 1794816)", "type": "functional, cell-based, HEK293"}
{"smiles": "C[N+](C)(C)[C@@H](Cc1c[nH]c(=S)[nH]1)C(=O)[O-]", "values": [{"measurement": "EC50", "value": 40, "unit": "µM"}]}
